Consider two compounds from PubChem BioAssay AID1919016 (Molecular Pharmacology Branch, DTP, NCI, 2023).

As usually defined, the IC50 is the point on the concentration scale where inhibition reaches its midpoint. For orientation: viability, T/C means the ratio of treated to control.

In this assay the test system is NCI-H196 complex spheroid growth, percent test/control. The assay can be described thus: Anticancer human tumor NCI-H196 cell line growth inhibition [AhR].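 For all read-outs here: seven days of drug exposure starting three days after plating.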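 For viability, T/C: 100% = DMSO vehicle control wells.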 Particulars: for viability, T/C: stronger effect = lower value. The gist of the method: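 Agents were dosed in half-log steps down from roughly clinical Cmax, or from 10 microM where Cmax was unknown, alone and with AhR antagonists. Read-out: percent test/control growth of tumor spheroids containing HUVEC and MSC stromal cells.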

“And” between values parts separate entries of the source, which are not always exact repeats. Identical values can stand only once. Bounds are passed on as bounds.

Regarding `CC[C@@]1(O)C(=O)OCc2c1cc1n(c2=O)Cc2cc3c(CN(C)C)c(O)ccc3nc2-1` + Cc1cncc(-c2nc(NCCc3c[nH]c4ccccc34)c3ncn(C(C)C)c3n2)c1, the IC50 reads like this: (curve of first compound, second compound 0.1 µM) more than 100 nM; (curve of first compound, second compound 0.316 µM) more than 100 nM; (curve of first compound, second compound 1 µM) more than 100 nM; (curve of first compound, second compound 3.16 µM) more than 100 nM; (curve of first compound, second compound 10 µM) more than 100 nM. Also, the viability, T/C reads like this: (second compound 0.1 µM, first compound 0.000316 µM) 105%; (second compound 0.1 µM, first compound 0.001 µM) 95.5%; (second compound 0.1 µM, first compound 0.00316 µM) 83%; (second compound 0.1 µM, first compound 0.01 µM) 88.8%; (second compound 0.1 µM, first compound 0.0316 µM) 96.8%; (second compound 0.1 µM, first compound 0.1 µM) 105%. For the same compound, the viability, T/C reads like this: (second compound 0.316 µM, first compound 0.000316 µM) 101%; (second compound 0.316 µM, first compound 0.001 µM) 100%; (second compound 0.316 µM, first compound 0.00316 µM) 98.8%; (second compound 0.316 µM, first compound 0.01 µM) 95.5%; (second compound 0.316 µM, first compound 0.0316 µM) 94.7%; (second compound 0.316 µM, first compound 0.1 µM) 99.2%. Moreover, the viability, T/C reads like this: (second compound 1 µM, first compound 0.000316 µM) 108%; (second compound 1 µM, first compound 0.001 µM) 103%; (second compound 1 µM, first compound 0.00316 µM) 91%; (second compound 1 µM, first compound 0.01 µM) 92.3%; (second compound 1 µM, first compound 0.0316 µM) 101%; (second compound 1 µM, first compound 0.1 µM) 89.8%. Further, the viability, T/C (second compound 3.16 µM, first compound 0.000316 µM) is 104%; the viability, T/C (second compound 3.16 µM, first compound 0.001 µM) is 101%; the viability, T/C (second compound 3.16 µM, first compound 0.00316 µM) was 96.7%; the viability, T/C (second compound 3.16 µM, first compound 0.01 µM) was 88.8%; the viability, T/C (second compound 3.16 µM, first compound 0.0316 µM) was 104%; the viability, T/C (second compound 3.16 µM, first compound 0.1 µM) is 95.2%. The viability, T/C (second compound 10 µM, first compound 0.000316 µM) is 82.8%; the viability, T/C (second compound 10 µM, first compound 0.001 µM) is 97.7%; the viability, T/C (second compound 10 µM, first compound 0.00316 µM) is 95.7%; the viability, T/C (second compound 10 µM, first compound 0.01 µM) was 74.1%; the viability, T/C (second compound 10 µM, first compound 0.0316 µM) was 83.9%; the viability, T/C (second compound 10 µM, first compound 0.1 µM) is 77.2%.
As for `CC(C)CC(NC(=O)C(Cc1ccccc1)NC(=O)c1cnccn1)B(O)O` (configuration not stated), the viability, T/C is, setting by setting: (compound 0.000949 µM) 98.7% and 106% and 105%; (compound 0.003 µM) 96.1% and 99.1% and 101%; (compound 0.00949 µM) 36.6% and 76.3% and 35.7%; (compound 0.03 µM) 2.1% and 7.38% and 4.57%; (compound 0.0949 µM) 1.67% and 5.37% and 2.7%; (compound 0.3 µM) 2.25% and 4.21% and 2%. Moreover, the IC50 (curve of compound) was 7.32 nM and 14.8 nM and 7.37 nM.
